Type in all cases: in vivo
The test system of experiment [1] is Erysiphe graminis tritici (powdery mildew). In words: Test 1 greenhouse foliar spray screen, powdery mildew on wheat. Conditions: Blumeria graminis, foliar, Test 1, foliar spray on wheat; disease control rating at 400 ppm / 100 ppm; read-out: POWD MDEW.
In experiment [2] the test system is southern armyworm (Spodopetra eridania Cramer). Put plainly: Mite/insect screen, SAW. The following applies: Spodoptera eridania, foliar, percent mortality, foliar spray on squash, read-out: SAW RESULTS %; for mortality at 200 ppm: rate 200 ppm; for mortality at 400 ppm: rate 400 ppm. A digest of the protocol:
(§1)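 First, each compound was dissolved in an emulsifier-containing acetone/alcohol mixture and diluted with water. Next, leaves were sprayed until runoff and left to dry for an hour. For southern armyworm, two excised uninfested leaves went into a Petri dish with larvae; percent mortality followed standard exposure periods.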

Experiment [3] relates to Twospotted spider mites (Tetranychus urticae Koch). In words: Mite/insect screen, SM. The following applies: for mortality at 200 ppm / mortality at 400 ppm: Tetranychus urticae, foliar, percent mortality, foliar spray on squash, read-out: SM RESULTS %; for mortality at 200 ppm: rate 200 ppm; for mortality at 400 ppm: rate 400 ppm; for activity as miticides: summary statement in the description. The gist of the method: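 Read-out: percent mortality after standard exposure periods. Test solutions were water dilutions of compound dissolved in acetone/alcohol (50:50) with emulsifier blends; leaves were sprayed to runoff on both surfaces and air-dried for one hour before exposure.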

Experiment [4] relates to Puccinia recondita tritici (leaf rust). Put plainly: Test 1 greenhouse foliar spray screen, leaf rust on wheat. Conditions: Puccinia recondita, foliar, Test 1, foliar spray on wheat; disease control rating at 400 ppm / 100 ppm.
Experiment [5] relates to Pseudoperonospora cubensis (downy mildew). Put plainly: Test 1 greenhouse foliar spray screen, downy mildew on squash. The following applies: Pseudoperonospora cubensis, foliar, Test 1, foliar spray on squash; disease control rating at 400 ppm / 100 ppm; read-out: DOWN MDEW.
The test system of the next experiment is corn rootworm. In words: Mite/insect screen, CRW. The following applies: percent mortality, read-out: CRW RESULTS %; for mortality at 12 ppm: CRW rate 12.00 ppm; for mortality at 24 ppm: CRW rate 24.00 ppm. A digest of the protocol: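 Stock in acetone:alcohol 1:1 + TOXIMUL R 23 g/L + TOXIMUL S 13 g/L; diluted with water to indicated concentrations; mortality (%) after standard exposure.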

Experiment [6] has as its system melon aphids (Aphis gossypii Glover). Put plainly: Mite/insect screen, MA. Conditions: Aphis gossypii, foliar, percent mortality, foliar spray on squash, read-out: MA RESULTS %; for mortality at 200 ppm: rate 200 ppm; for mortality at 400 ppm: rate 400 ppm. A digest of the protocol:
as §1

Experiment [7] has as its system Pyricularia oryzae (rice blast). In words: whole plant or invertebrate. The following applies: Pyricularia oryzae, foliar, read-out: RICE BLAST, Test 1, foliar spray on rice; disease control rating at 400 ppm / 100 ppm.
Experiment [8] has as its system Botrytis cinerea (gray mold). Put plainly: Test 1 greenhouse foliar spray screen, gray mold on grape berries. The following applies: Botrytis cinerea, foliar; Test 1, spray on grape berries; disease control rating at 400 ppm / 100 ppm.

We go through eleven compounds from patent EP0326331B1, “Substituted quinolines and cinnolines” (Dow AgroSciences LLC, priority 1988, dated 1989).

As to `CC(C)(C)c1ccc(CCOc2ccnc3cc(Cl)ccc23)cc1` [Example 231, 7-chloro-4-[2-(4-(t-butyl)phenyl)ethoxy]quinoline], the pest or weed control at 400 ppm was in the range of 20 to 89% in [1]; 0 to 19% in experiment [4]; 0 to 19% in experiment [5]; 0 to 19% in experiment [7]; 0 to 19% in [8]. In addition, the mortality at 200 ppm in [2] came to 0%; in experiment [3], 90%; in experiment [6] it was 0%. The mortality at 400 ppm in experiment [2] came to 0%; in experiment [3], 40%; in [6], 50%. Also, in experiment [3], the activity as miticides result is listed as “particularly excellent activity”. In addition, in the experiment on corn rootworm, the mortality at 12 ppm was 0%. Besides, in the experiment on corn rootworm, the mortality at 24 ppm turned out to be 0%.

In the case of `CC(C)(C)c1ccc(CCOc2ccnc3cc(F)ccc23)cc1` [Example 232, 4-[2-(4-(t-butyl)phenyl)ethoxy]-7-fluoroquinoline], the pest or weed control at 400 ppm in [1], in experiment [4], in [5], in [7] and in experiment [8] was 0 to 19% each time. In addition, the values for the mortality at 200 ppm in experiment [2], in experiment [3] and in [6] were 0%, 100% and 70%, respectively. Also, the figures for the mortality at 400 ppm in experiment [2], in experiment [3] and in experiment [6] were 30%, 80% and 40%, respectively. In addition, the activity as miticides result in experiment [3] was “particularly excellent activity”. For the same compound, the mortality at 12 ppm in the experiment with corn rootworm came to 0%. Further, the mortality at 24 ppm in the experiment with corn rootworm is 0%.

As to `Fc1cccc2c(OCCc3ccccc3-c3ccccc3)ccnc12` [Example 237, 8-fluoro-4-[2-(1,1'-biphenyl)-2-yl-ethoxy]quinoline], the pest or weed control at 400 ppm in experiment [1] is 90 to 100%; in experiment [4], 20 to 89%; in experiment [5], 0 to 19%; in [7], 90 to 100%; in [8], 0 to 19%. The mortality at 200 ppm in experiment [2], in experiment [3] and in experiment [6] was 0% each time. Further, the mortality at 400 ppm in [2] is 0%; in experiment [3], 100%; in [6], 0%. Besides, the activity as miticides entry in experiment [3] is recorded as “particularly excellent activity”. Also, the mortality at 12 ppm in the experiment on corn rootworm came out at 0%. Besides, the mortality at 24 ppm in the experiment on corn rootworm turned out to be 0%.

`FC(F)(F)c1ccc2c(OCCc3ccccc3)ccnc2c1` [Example 239, 4-(2-phenylethoxy)-7-(trifluoromethyl)quinoline]: the pest or weed control at 400 ppm in experiment [1] lay within 90 to 100%; in experiment [4], 90 to 100%; in [5], 90 to 100%; in experiment [7], 90 to 100%; in experiment [8], 0 to 19%. Moreover, the mortality at 200 ppm in experiment [2], in experiment [3] and in experiment [6] was 0% in each case. In addition, the mortality at 400 ppm in [2], in [3] and in experiment [6] was 0% throughout. Further, in the experiment with corn rootworm, the mortality at 12 ppm came out at 0%. Also, in the experiment with corn rootworm, the mortality at 24 ppm worked out at 0%.

For `Fc1ccc(CCOc2ccnc3c(Cl)cccc23)cc1` [Example 240, 8-chloro-4-[2-(4-fluorophenyl)ethoxy]quinoline], the pest or weed control at 400 ppm in experiment [1] lay in the range of 0 to 19%; in experiment [4] it was 90 to 100%; in experiment [5], 0 to 19%; in [7] it was 20 to 89%; in [8], 0 to 19%. The mortality at 400 ppm in experiment [2], in [3] and in [6] was 0% in each case. For the same compound, the mortality at 24 ppm with corn rootworm was 0%.

For `CC(C)(C)c1ccc(CCCOc2ccnc3c(F)cccc23)cc1` [Example 241, 8-fluoro-4-[3-[4-(t-butyl)phenyl]propoxy]quinoline], the pest or weed control at 400 ppm in [1], in experiment [4], in experiment [5], in experiment [7] and in experiment [8] was 0 to 19% each time. For the same compound, the mortality at 400 ppm in experiment [2], in experiment [3] and in [6] was 0% throughout. In the experiment with corn rootworm, the mortality at 24 ppm worked out at 0%.

For the compound `Clc1ccc(CCCOc2ccnc3c(Cl)cccc23)cc1` [Example 242, 8-chloro-4-[3-(4-chlorophenyl)propoxy]quinoline], the pest or weed control at 400 ppm in [1], in experiment [4], in experiment [5], in experiment [7] and in experiment [8] was 0 to 19% in each case. In addition, the mortality at 200 ppm in experiment [2], in experiment [3] and in [6] was 0% in each case. The mortality at 400 ppm in experiment [2], in experiment [3] and in experiment [6] was 0% in each case. Besides, in the experiment on corn rootworm, the mortality at 12 ppm came out at 0%. Also, the mortality at 24 ppm with corn rootworm was determined as 0%.

As to `Fc1cccc2c(OCC=Cc3ccccc3)ccnc12` [Example 243, 8-fluoro-4-[(3-phenyl-2-propenyl)oxy]quinoline], the pest or weed control at 400 ppm in [1], in experiment [4], in experiment [5], in [7] and in experiment [8] was 0 to 19% throughout. The mortality at 400 ppm in experiment [2], in experiment [3] and in experiment [6] was 0% each time. Further, the mortality at 24 ppm in the experiment on corn rootworm was 0%.

In the case of `Cc1cc(OCCC2CCCCC2)c2c(Cl)ccc(C)c2n1` [Example 248, 5-chloro-4-(2-cyclohexylethoxy)-2,8-dimethylquinoline], the pest or weed control at 400 ppm was 20 to 89% in experiment [1]; 0 to 19% in experiment [4]; 0 to 19% in experiment [5]; 0 to 19% in experiment [7]; 0 to 19% in experiment [8]. The mortality at 400 ppm in [2], in [3] and in experiment [6] was 0% throughout. The mortality at 24 ppm with corn rootworm was found to be 0%.

Consider `Cc1cc(OCCC2CCCCC2)c2cc(F)ccc2n1` [Example 249, 6-fluoro-4-(2-cyclohexylethoxy)-2-methylquinoline], for which the pest or weed control at 400 ppm in [1], in experiment [4], in experiment [5], in [7] and in experiment [8] was 0 to 19% in each case. In addition, the mortality at 400 ppm in [2], in experiment [3] and in [6] was 0% each time. Besides, the mortality at 24 ppm in the experiment on corn rootworm came out at 0%.

`Cc1ccc(CCOc2cc(OCCc3ccc(C)cc3)c3cccc(F)c3n2)cc1` [Example 250, 8-fluoro-2,4-bis[2-(4-methylphenyl)ethoxy]quinoline]: the pest or weed control at 400 ppm in experiment [1] was in the range of 0 to 19%; in experiment [4], 20 to 89%; in experiment [5] it was 20 to 89%; in [7] it was 0 to 19%; in experiment [8] it was 0 to 19%. The mortality at 400 ppm in [2], in experiment [3] and in [6] was 0% in each case. Also, the mortality at 24 ppm in the experiment on corn rootworm came to 0%.
